# Laboratory results from US5434247A, “Peptides for inducing monocyte cytotoxicity in diagnostics” (Board of Regents, The University of Texas System, priority 1992, dated 1995).
# “Also recorded” adds a separate entry of the source. Where two headings read alike, the source gives them in different places. *1 amine or outer side, *2 acyl side, *3 side chain or, on linkers, in order; H or OH if unused. Where a SMILES comes first, the peptide text is derived from it. Bridges are numbered along the chain shown (N, C = ends). Roman numbers before positions name the chains, in order. Where no end group is shown, it is not given here. [ ]: non-standard residue; d: D form. Actinocin(9to1) = Cc1c2oc3c(C)ccc(C(=O)[*:1])c3nc-2c(C(=O)[*:2])c(N)c1=O; NMeV = CN[C@H](C(=O)O)C(C)C; Sar = CNCC(=O)O
# B1: IFN-γ: human gamma interferon (protein, UniProt P01579 24-161, looked up)
# Interferon gamma: QDPYVKEAENLKKYFNAGHSDVADNGTLFLGILKNWKEESDRKIMQSQIVSFYFKLFKNFKDDQSIQKSVETIKEDMNVKFFNSNKKKRDDFEKLTNYSVTDLNVQRKAIHELIQVMAELSPAAKTGKRKRSQMLFRG
# B2: m-CSF: purified m-CSF (protein, UniProt P09603 33-554, looked up)
# Macrophage colony-stimulating …: EEVSEYCSHMIGSGHLQSLQRLIDSQMETSCQITFEFVDQEQLKDPVCYLKKAFLLVQDIMEDTMRFRDNTPNAIAIVQLQELSLRLKSCFTKDYEEHDKACVRTFYETPLQLLEKVKNVFNETKNLLDKDWNIFSKNCNNSFAECSSQDVVTKPDCNCLYPKAIPSSDPASVSPHQPLAPSMAPVAGLTWEDSEGTEGSSLLPGEQPLHTVDPGSAKQRPPRSTCQSFEPPETPVVKDSTIGGSPQPRPSVGAFNPGMEDILDSAMGTNWVPEEASGEASEIPVPQGTELSPSRPGGGSMQTEPARPSNFLSASSPLPASAKGQQPADVTGTALPRVGPVRPTGQDWNHTPQKTDHPSALLRDPPEPGSPRISSLRPQGLSNPSTLSAQPQLSRSHSSGSVLPLGELEGRRSTRDRRSPAEPEGGPASEGAARPLPRFNSVPLTDTGHERQSEGSFSPQLQESVFHLLVPSVILVLLAVGGLLFYRWRRRSHQEPQRADSPLEQPEGSPLTQDDRQVELPV
# B3: eIL1α: recombinant IL 1 alpha (Cistron Biotechnology) (protein, UniProt P01583 113-271, looked up)
# Interleukin-1 alpha: SAPFSFLSNVKYNFMRIIKYEFILNDALNQSIIRANDQYLTAAALHNLDEAVKFDMGAYKSSKDDAKITVILRISKTQLYVTAQDEDQPVLLKEMPEIPKTITGSETNLLFFWETHGTKNYFTSVAHPNLFIATKQDYWVCLAGGPPSITDFQILENQA
# Legend:
# FtF3 cells = test: Effects of metabolic inhibitors and tunicamycin on MCF production; format: cell-based, human; details: for biological activity of MCF after biosynthesis in the presence of the agent: tunicamycin 0, 1, 2.5 or 5.0 ug/ml; for effect on MCF production of PHA-stimulated FtF3 cells: cells incubated 4 h with inhibitor (0 to 100 ug/ml), washed, PHA 24 h; for effect on MCF production of nonstimulated (non-PHA treated) cells: puromycin at doses of 10-50 ug/ml
# Protocol: (§1) FIG. 2. FtF3 cells were incubated 4 h with various doses of actinomycin D. Cells were washed and stimulated with PHA for 24 h before harvesting supernatants by centrifugation, extensive dialysis, and bioassay.( ) One set of each dose of inhibitor-treated cells was labelled with ^3 H-uridine, stimulated, lysed and harvested 24 h later, and counted by liquid scintillation.(.quadrature.) Viability of FtF3 at 24 h was greater than 80% at all doses tested.
# as §1, with “3.” for “2.”, “cycloheximide.” for “actinomycin D.”, “3 H-amino acids,” for “^3 H-uridine,”, “TCA-precipitated” for “lysed and harvested”
# FIG. 4. FtF3 cells were incubated 4 h with various doses of puromycin. Cells were washed and resuspended either with ( ) or without (.quadrature.) PHA, and incubated 24 h before harvesting supernatants by centrifugation, extensive dialysis, and bioassay. Viability of FtF3 at 24 h was greater than 80% at all doses tested.
# Urea treatment was accomplished by adding 3 grams of solid urea to 10 ml MCF (28.5 U/ml) (5M urea final). Extraction of MCF with butanol-diisopropyl ether was performed. FtF3 cells were cultured with 0, 1, 2.5 or 5.0 ug/ml tunicamycin. […] MCF supernatants were extracted with butanol-diisopropyl ether; the aqueous phase contained 36.7% less MCF than the control preparation.
# FtF3 cells at a concentration of 1×10^6 /ml in RPMI 1640/10% FCS were incubated 4 hours with either actinomycin D, cycloheximide, or puromycin (all at 0 to 100 ug/ml, Sigma). Tests for viability after treatment were performed by trypan blue exclusion and supernatants were collected by centrifugation. In a second set of experiments FtF3 cells at the same concentration but using 0.1% human serum were incubated for 5 hours with either cycloheximide or puromycin. Uptake experiments were performed by adjusting FtF3 cells to 1×10^6 /ml in media after treatment with inhibitor, and adding either 5,6-^3 H-uridine (ICN Radiochemicals, Irvine, Calif., USA, […]) to actinomycin D treated cells or ^3 H L-amino acid mixture (25.5 mci/mg) to cycloheximide-treated cells at 1 uCi to 1×10^5 cells. Cells were subsequently lysed and counted by liquid scintillation.
# human monocytes / K562 = test: Human monocyte cytotoxicity assay (MCF assay), 111In-Ox labeled K562 targets; format: cell-based; details: for monocyte cytotoxicity inducing activity (in words) / concentration at which the peptide activates human blood monocytes for cytotoxicity: K562 target; for concentration at which the peptide activates human blood monocytes for cytotoxicity: purified peptide, monocytes of eight human donors
# Protocol: FIG. 1. Hybrid cells were adjusted to 1×10^6 /ml and stimulated with 8 ug/ml PHA(+). […] to control (-) cultures, and both supernatants harvested by centrifugation. Monocyte cytotoxicity was measured as described herein with the exception that the monocyte monolayer was incubated overnight to allow for decay of NK cell activity. The monolayer was incubated for a second 24 hr period with dilutions of MCF containing supernatants. Dilutions represented are 1/4 in a total test volume of 0.2 ml. […] Microtiter plates were centrifuged 16 hrs later, and supernatants collected and counted. % specific release was calculated as described herein.
# Only healthy volunteer donors were used. All volunteer donors signed an informed consent, and the protocol was approved by the Committee for the Protection of Human Subjects, University of Texas Health Science Center. Mononuclear cells were prepared by centrifugation over Ficoll/Hypaque. […] The monolayer was incubated overnight to allow for decay of residual natural killer activity before addition of lymphokine preparations on day 2.
# The effector to target ratio was 30:1. […] After 18 hrs incubation of monocyte monolayer with target, the plates were centrifuged and supernatant was removed and cpms were counted in a Beckman Biogamma 2000. Specific release was calculated as described by Wiltrout, supra. […] Other tumor targets used were HL-60, L5178Y and TU5 (Table V).
# [1] = Enzyme treatment of MCF supernatants; format: physicochemical; details: in contrast to MCF
# Protocol: In order to treat MCF supernatants with enzymes, 10 ml of the supernatant (28.5 units/ml) were treated with 1 mg/ml trypsin at pH 7.4, 1 mg/ml chymotrypsin at pH 7.4, 0.5 mg/ml DNase at pH 7.4, or 40 units/ml RNase at pH 5 for 1 hour at 25° C. […] The experiments were repeated using insolubilized enzymes to minimize the possibility that enzymes could be carried over into the bioassay and could explain the results.
# [2] = all doses tested, trypan blue exclusion
molecule,measurement,setting,value
tunicamycin,biological activity of MCF after biosynthesis in the presence of the agent,FtF3 cells,no significant change
"Cc1c2oc3c(C)ccc(C(=O)N[C@@H]4C(=O)N[C@H](C(C)C)C(=O)N5CCC[C@H]5C(=O)N(C)CC(=O)N(C)[C@@H](C(C)C)C(=O)O[C@@H]4C)c3nc-2c(C(=O)N[C@@H]2C(=O)N[C@H](C(C)C)C(=O)N3CCC[C@H]3C(=O)N(C)CC(=O)N(C)[C@@H](C(C)C)C(=O)O[C@@H]2C)c(N)c1=O [actinomycin D] (I: T[dV]P[Sar][NMeV] / II: T[dV]P[Sar][NMeV]; ester I:1-I:C, II:1-II:C; linker I:N-II:N via Actinocin(9to1))",Viability of FtF3 at 24 h,FtF3 cells; [2],greater than 80%
same,effect on MCF production of PHA-stimulated FtF3 cells,FtF3 cells,totally suppressed
same,effect on MCF production of nonstimulated (non-PHA treated) cells,FtF3 cells,no effect
"Gly Ala Ala Val Leu (GAAVL; printed: Gly Ala Ala Val Leu) [MJ-3, truncated five-mer, native 5 N-terminal amino acids of P29]",monocyte cytotoxicity inducing activity (in words),human monocytes / K562,not determined to be above the background for the assay
same,monocyte cytotoxicity inducing activity (in words),human monocytes / K562; listed as MJ3,did not reliably exhibit biological activity
same,specific release of label,"human monocytes / K562; one experiment, input of 10^2 mg of protein",25%
OCCS [2-mercaptoethanol],biological activity of MCF after biosynthesis in the presence of the agent,FtF3 cells,no significant change
GAAVLENSQ [MJ-1],monocyte cytotoxicity inducing activity (in words),human monocytes / K562,capable of inducing human monocyte cytotoxicity; also recorded: found to have biological MCF activity
same,"decrease in the biological activity of the peptide by the substitution, versus MJ-2","human monocytes / K562; parallel assays, same human donors",~3 log fold
same,concentration at which the peptide activates human blood monocytes for cytotoxicity,human monocytes / K562,10^-6 M
GAAVLEDSQ [MJ-2],monocyte cytotoxicity inducing activity (in words),human monocytes / K562,exhibits the same high level activity as the intact protein of 29kD; also recorded: capable of activating human blood monocytes for tumor cytotoxicity; also recorded: to a similar extent as the intact protein of 29kD
same,concentration at which the peptide activates human blood monocytes for cytotoxicity,human monocytes / K562,approximately 10^-9 M
rIL1β: recombinant IL 1 beta (Cistron Biotechnology) [reference compound],% specific lysis,human monocytes / K562; cytokine added at 0.1 U/ml,-8.7 ± 2.8%
same,% specific lysis,human monocytes / K562; cytokine added at 1 U/ml,-4.9 ± 4.6%
same,% specific lysis,human monocytes / K562; cytokine added at 10 U/ml,-1.8 ± 9.6%
IFN-α [reference compound],% specific lysis,human monocytes / K562; cytokine added at 1 U/ml,4.5 ± 3.0%
same,% specific lysis,human monocytes / K562; cytokine added at 10 U/ml,-5.4 ± 9.2%
same,% specific lysis,human monocytes / K562; cytokine added at 100 U/ml,-2.1 ± 12.4%
same,% specific lysis,human monocytes / K562; cytokine added at 1000 U/ml,-8.9 ± 8.8%
COc1ccc(C[C@H](N)C(=O)N[C@H]2[C@@H](O)[C@H](n3cnc4c(N(C)C)ncnc43)O[C@@H]2CO)cc1 [puromycin],Viability of FtF3 at 24 h,FtF3 cells,greater than 80%
same,lectin-induced MCF production with inhibitor present for the entire incubation period,FtF3 cells,suppressive in a dose-dependent manner
same,effect on MCF production of PHA-stimulated FtF3 cells,FtF3 cells,suppressed but did not totally abolish
same,effect on MCF production of nonstimulated (non-PHA treated) cells,FtF3 cells,appeared to stimulate
C[C@@H]1C[C@@H]([C@H](O)CC2CC(=O)NC(=O)C2)C(=O)[C@@H](C)C1 [cycloheximide],lectin-induced MCF production with inhibitor present for the entire incubation period,FtF3 cells,not suppressed
same,Viability of FtF3 at 24 h,FtF3 cells; [2],greater than 80%
same,effect on MCF production of PHA-stimulated FtF3 cells,FtF3 cells,suppressed but did not abolish
same,effect on MCF production of nonstimulated (non-PHA treated) cells,FtF3 cells,only a slight stimulatory effect
GM-CSF: recombinant GM-CSF [reference compound],% specific lysis,human monocytes / K562; cytokine added at 50 U/ml,-2.5 ± 15.9%
same,% specific lysis,human monocytes / K562; cytokine added at 100 U/ml,5.7 ± 3.1%
same,% specific lysis,human monocytes / K562; cytokine added at 200 U/ml,-0.6 ± 4.9%
Leu Glu Asp Ser Gln (LEDSQ) [MJ-5],monocyte cytotoxicity inducing activity (in words),human monocytes / K562,critical for biological activity
B1,monocyte cytotoxicity inducing activity (in words),human monocytes / K562,only slight activity
same,increase in specific lysis,human monocytes / K562; amounts up to 1000 U/ml final concentration,6.2%
same,% specific lysis,human monocytes / K562; cytokine added at 10 U/ml,-3.5 ± 1.1%
same,% specific lysis,human monocytes / K562; cytokine added at 100 U/ml,3.4 ± 3.2%
same,% specific lysis,human monocytes / K562; cytokine added at 1000 U/ml,6.2 ± 4.4%
same,effect of trypsin,[1],inactivated
B2,% specific lysis,human monocytes / K562; cytokine added at 17.3 U/ml,26.0 ± 6.5%
same,% specific lysis,human monocytes / K562; cytokine added at 173 U/ml,14.5 ± 4.6%
same,% specific lysis,human monocytes / K562; cytokine added at 1730 U/ml,-3.9 ± 4.7%
B3,% specific lysis,human monocytes / K562; cytokine added at 0.1 U/ml,-4.1 ± 4.1%
same,% specific lysis,human monocytes / K562; cytokine added at 1 U/ml,-3.6 ± 5.6%
same,% specific lysis,human monocytes / K562; cytokine added at 10 U/ml,-0.7 ± 7.6%
